Measurements as given in patent US8541588B2, “Sulfonamide derivatives” (Pfizer Limited, priority 2009, dated 2013).

target: T1, Nav1.7 (or SCN9A) channel; HEK cells stably transfected with hSCN9A (Homo sapiens, UniProt Q15858); assay: Nav1.7 block, PatchXpress 7000 automated whole-cell voltage clamp, estimated IC50 (EIC50); assay type: cell-based; details: estimated IC50; hSCN9A HEK cells, PatchXpress platform; Examples 283-814
T1 construct: expressed in transfected cells
T1 sequence (Q15858 whole entry): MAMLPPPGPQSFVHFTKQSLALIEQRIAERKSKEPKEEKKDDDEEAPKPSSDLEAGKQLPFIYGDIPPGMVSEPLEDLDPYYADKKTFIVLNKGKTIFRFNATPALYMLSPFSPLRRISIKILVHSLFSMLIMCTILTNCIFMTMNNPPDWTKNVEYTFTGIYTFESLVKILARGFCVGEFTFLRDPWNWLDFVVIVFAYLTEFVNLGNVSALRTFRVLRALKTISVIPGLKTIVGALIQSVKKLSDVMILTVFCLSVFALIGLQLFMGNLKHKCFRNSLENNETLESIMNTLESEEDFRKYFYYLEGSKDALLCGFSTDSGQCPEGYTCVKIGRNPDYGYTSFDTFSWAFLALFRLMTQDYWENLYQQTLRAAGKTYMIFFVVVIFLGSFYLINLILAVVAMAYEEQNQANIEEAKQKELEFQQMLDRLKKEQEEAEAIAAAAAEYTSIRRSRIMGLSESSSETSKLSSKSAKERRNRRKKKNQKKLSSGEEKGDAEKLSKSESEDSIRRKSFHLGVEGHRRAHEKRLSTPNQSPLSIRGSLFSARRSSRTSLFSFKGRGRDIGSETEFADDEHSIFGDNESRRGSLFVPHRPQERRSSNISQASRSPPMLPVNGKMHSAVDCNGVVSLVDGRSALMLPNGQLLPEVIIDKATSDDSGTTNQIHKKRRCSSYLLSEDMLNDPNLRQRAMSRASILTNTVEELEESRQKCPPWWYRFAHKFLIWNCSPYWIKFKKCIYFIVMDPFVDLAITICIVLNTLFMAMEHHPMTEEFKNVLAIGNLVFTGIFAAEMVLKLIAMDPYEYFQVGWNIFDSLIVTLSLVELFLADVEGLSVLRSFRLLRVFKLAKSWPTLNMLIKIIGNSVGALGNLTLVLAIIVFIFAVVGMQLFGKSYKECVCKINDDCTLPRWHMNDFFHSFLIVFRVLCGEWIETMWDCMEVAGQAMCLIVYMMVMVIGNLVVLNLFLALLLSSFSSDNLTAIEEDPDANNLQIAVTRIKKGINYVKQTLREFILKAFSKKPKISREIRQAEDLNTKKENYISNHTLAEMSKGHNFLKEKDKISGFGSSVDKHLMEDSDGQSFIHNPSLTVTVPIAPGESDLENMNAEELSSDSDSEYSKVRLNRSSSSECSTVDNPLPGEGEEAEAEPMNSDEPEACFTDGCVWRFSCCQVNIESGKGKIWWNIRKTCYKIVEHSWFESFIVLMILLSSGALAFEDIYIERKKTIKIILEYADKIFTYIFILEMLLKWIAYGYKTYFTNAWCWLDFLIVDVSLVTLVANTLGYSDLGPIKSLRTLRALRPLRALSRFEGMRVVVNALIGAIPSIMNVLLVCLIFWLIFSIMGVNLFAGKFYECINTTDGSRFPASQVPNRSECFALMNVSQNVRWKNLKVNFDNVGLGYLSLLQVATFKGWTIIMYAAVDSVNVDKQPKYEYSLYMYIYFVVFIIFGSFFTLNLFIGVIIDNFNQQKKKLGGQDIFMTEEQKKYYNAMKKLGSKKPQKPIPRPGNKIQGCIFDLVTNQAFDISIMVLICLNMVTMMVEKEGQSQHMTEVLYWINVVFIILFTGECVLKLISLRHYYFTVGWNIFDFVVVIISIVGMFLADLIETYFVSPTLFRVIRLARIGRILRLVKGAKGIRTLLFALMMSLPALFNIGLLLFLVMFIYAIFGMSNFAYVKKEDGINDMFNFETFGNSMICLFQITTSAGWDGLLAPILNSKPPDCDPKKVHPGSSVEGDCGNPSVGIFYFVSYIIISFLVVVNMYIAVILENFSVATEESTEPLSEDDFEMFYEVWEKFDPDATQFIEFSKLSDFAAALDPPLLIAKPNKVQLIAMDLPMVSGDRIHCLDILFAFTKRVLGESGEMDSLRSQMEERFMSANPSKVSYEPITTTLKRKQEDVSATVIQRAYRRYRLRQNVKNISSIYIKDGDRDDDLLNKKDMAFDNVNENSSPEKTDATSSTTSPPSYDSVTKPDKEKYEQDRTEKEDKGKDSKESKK

Row | IC50 [nM] | Structure (SMILES)
1 | >30000 | COc1cc(Oc2ccc(S(=O)(=O)Nc3ccc(F)cn3)cc2C#N)ccc1-n1cnc(C)c1 [Example 575, 3-cyano-N-(5-fluoropyridin-2-yl)-4-[3-methoxy-4-(4-methyl-1H-imidazol-1-yl)phenoxy]benzenesulfonamide]
2 | >3000 | Cc1nnc(-c2ccc(Oc3ccc(S(=O)(=O)Nc4ccc(F)cn4)cc3C#N)cc2)o1 [Example 576, 3-cyano-N-(5-fluoropyridin-2-yl)-4-[4-(5-methyl-1,3,4-oxadiazol-2-yl)phenoxy]benzenesulfonamide]
3 | 11000 | Cc1cnsc1-c1ccccc1Oc1ccc(S(=O)(=O)Nc2ccc(F)cn2)cc1C#N [Example 577, 3-cyano-N-(5-fluoropyridin-2-yl)-4-[2-(4-methylisothiazol-5-yl)phenoxy]benzenesulfonamide]
4 | 5500 | COc1cc(Oc2ccc(S(=O)(=O)Nc3ccc(F)cn3)cc2C#N)ccc1-n1ccnc1C [Example 578, 3-cyano-N-(5-fluoropyridin-2-yl)-4-[3-methoxy-4-(2-methyl-1H-imidazol-1-yl)phenoxy]benzenesulfonamide]
5 | >3000 | COc1cc(Oc2ccc(S(=O)(=O)Nc3ccc(F)cn3)cc2C#N)ccc1-n1cccn1 [Example 579, 3-cyano-N-(5-fluoropyridin-2-yl)-4-[3-methoxy-4-(1H-pyrazol-1-yl)phenoxy]benzenesulfonamide]
6 | 6900 | N#Cc1cc(S(=O)(=O)Nc2ccc(F)cn2)ccc1Oc1ccccc1-c1nnco1 [Example 580, 3-cyano-N-(5-fluoropyridin-2-yl)-4-[2-(1,3,4-oxadiazol-2-yl)phenoxy]benzenesulfonamide]
7 | >3000 | N#Cc1cc(S(=O)(=O)Nc2ccc(F)cn2)ccc1Oc1ccc(-c2cocn2)cc1 [Example 581, 3-cyano-N-(5-fluoropyridin-2-yl)-4-[4-(1,3-oxazol-4-yl)phenoxy]benzenesulfonamide]
8 | 34 | N#Cc1cc(S(=O)(=O)Nc2ncc(I)s2)ccc1Oc1ccc(Cl)cc1-c1cn[nH]c1 [Example 582, 4-[4-Chloro-2-(1H-pyrazol-4-yl)phenoxy]-3-cyano-N-(5-iodo-1,3-thiazol-2-yl)benzenesulfonamide]
9 | 13 | N#Cc1cc(S(=O)(=O)Nc2ncc(Cl)s2)ccc1Oc1ccc(Cl)cc1-c1cn[nH]c1N [Example 583, 4-[2-(5-Amino-1H-pyrazol-4-yl)-4-chlorophenoxy]-N-(5-chloro-1,3-thiazol-2-yl)-3-cyanobenzenesulfonamide]
10 | 97 | N#Cc1cc(S(=O)(=O)Nc2ncc(Cl)s2)ccc1Oc1ccc(F)cc1-c1ccnc(N)c1 [Example 584, 4-[2-(2-Aminopyridin-4-yl)-4-fluorophenoxy]-N-(5-chloro-1,3-thiazol-2-yl)-3-cyanobenzenesulfonamide]
11 | 140 | N#Cc1cc(S(=O)(=O)Nc2ncc(Cl)s2)ccc1Oc1ccc(Cl)cc1-c1ccnc(CO)c1 [Example 586, 4-{4-Chloro-2-[2-(hydroxymethyl)pyridin-4-yl]phenoxy}-N-(5-chloro-1,3-thiazol-2-yl)-3-cyanobenzenesulfonamide]
12 | 200 | N#Cc1cc(S(=O)(=O)Nc2ncc(Cl)s2)ccc1Oc1ccc(F)cc1-c1ccc(N)nc1 [Example 587, 4-[2-(6-Aminopyridin-3-yl)-4-fluorophenoxy]-N-(5-chloro-1,3-thiazol-2-yl)-3-cyanobenzenesulfonamide]
13 | 120 | N#Cc1cc(S(=O)(=O)Nc2ncc(Cl)s2)ccc1Oc1ccc(Cl)cc1C1COC1 [Example 588, 4-(4-Chloro-2-oxetan-3-ylphenoxy)-N-(5-chloro-1,3-thiazol-2-yl)-3-cyanobenzenesulfonamide]
14 | 510 | N#Cc1cc(S(=O)(=O)Nc2ncc(Cl)s2)ccc1Oc1ccc(F)cc1-c1ccn[nH]1 [Example 589, N-(5-Chloro-1,3-thiazol-2-yl)-3-cyano-4-[4-fluoro-2-(1H-pyrazol-5-yl)phenoxy]benzenesulfonamide]
15 | 53 | N#Cc1cc(S(=O)(=O)Nc2ncc(Cl)s2)ccc1Oc1ccc(C(F)(F)F)cc1-c1cn[nH]c1 [Example 590, N-(5-Chloro-1,3-thiazol-2-yl)-3-cyano-4-[2-(1H-pyrazol-4-yl)-4-(trifluoromethyl)phenoxy]benzenesulfonamide]
16 | 73 | N#Cc1cc(S(=O)(=O)Nc2ncc(Cl)s2)ccc1Oc1ccc(OC(F)(F)F)cc1-c1cn[nH]c1 [Example 591, N-(5-Chloro-1,3-thiazol-2-yl)-3-cyano-4-[2-(1H-pyrazol-4-yl)-4-(trifluoromethoxy)phenoxy]benzenesulfonamide]
17 | 35 | N#Cc1cc(S(=O)(=O)Nc2ncc(Cl)s2)ccc1Oc1ccc(Cl)cc1C1CCNCC1 [Example 593, 4-(4-Chloro-2-piperidin-4-ylphenoxy)-N-(5-chloro-1,3-thiazol-2-yl)-3-cyanobenzenesulfonamide]
18 | 160 | N#Cc1cc(S(=O)(=O)Nc2ncc(Cl)s2)ccc1Oc1ccc(Cl)cc1C1CNC1 [Example 594, 4-(2-Azetidin-3-yl-4-chlorophenoxy)-N-(5-chloro-1,3-thiazol-2-yl)-3-cyanobenzenesulfonamide]

Row | IC50 [nM] | Structure (SMILES)
19 | 80 | N#Cc1cc(S(=O)(=O)Nc2ncc(Cl)s2)ccc1Oc1ccc(Cl)cc1-c1ccnn1C(F)F [Example 595, 4-{4-Chloro-2-[1-(difluoromethyl)-1H-pyrazol-5-yl]phenoxy}-N-(5-chloro-1,3-thiazol-2-yl)-3-cyanobenzenesulfonamide]
20 | 79 | Cn1nccc1-c1cc(F)ccc1Oc1ccc(S(=O)(=O)Nc2ncc(Cl)s2)cc1C#N [Example 596, N-(5-Chloro-1,3-thiazol-2-yl)-3-cyano-4-[4-fluoro-2-(1-methyl-1H-pyrazol-5-yl)phenoxy]benzenesulfonamide]
21 | 20 | Cn1nccc1-c1cc(Cl)ccc1Oc1ccc(S(=O)(=O)Nc2ncc(Cl)s2)cc1C#N [Example 597, 4-[4-Chloro-2-(1-methyl-1H-pyrazol-5-yl)phenoxy]-N-(5-chloro-1,3-thiazol-2-yl)-3-cyanobenzenesulfonamide]
22 | 230 | N#Cc1cc(S(=O)(=O)Nc2cscn2)ccc1Oc1ccc(C(F)(F)F)cc1-c1cn[nH]c1 [Example 598, 3-cyano-4-[2-(1H-pyrazol-4-yl)-4-(trifluoromethyl)phenoxy]-N-1,3-thiazol-4-ylbenzenesulfonamide]
23 | 300 | N#Cc1cc(S(=O)(=O)Nc2cscn2)ccc1Oc1ccc(OC(F)(F)F)cc1-c1cn[nH]c1 [Example 599, 3-cyano-4-[2-(1H-pyrazol-4-yl)-4-(trifluoromethoxy)phenoxy]-N-1,3-thiazol-4-ylbenzenesulfonamide]
24 | 15000 | Cc1scnc1NS(=O)(=O)c1ccc(Oc2ccccc2-c2ccccc2)c(C#N)c1 [Example 600, 4-(biphenyl-2-yloxy)-3-cyano-N-(5-methyl-1,3-thiazol-4-yl)benzenesulfonamide]
25 | 940 | Cn1nccc1-c1cc(C(F)(F)F)ncc1Oc1ccc(S(=O)(=O)Nc2cscn2)cc1C#N [Example 601, 3-cyano-4-{[4-(1-methyl-1H-pyrazol-5-yl)-6-(trifluoromethyl)pyridin-3-yl]oxy}-N-1,3-thiazol-4-ylbenzenesulfonamide]
26 | 1500 | Cn1nccc1-c1cc(Cl)ccc1Oc1ccc(S(=O)(=O)Nc2ncsc2F)cc1C#N [Example 602, 4-[4-chloro-2-(1-methyl-1H-pyrazol-5-yl)phenoxy]-3-cyano-N-(5-fluoro-1,3-thiazol-4-yl)benzenesulfonamide]
27 | 820 | O=S(=O)(Nc1cscn1)c1cc(F)c(Oc2ccc(Cl)cc2C2CNC2)cc1F [Example 604, 4-(2-azetidin-3-yl-4-chlorophenoxy)-2,5-difluoro-N-1,3-thiazol-4-ylbenzenesulfonamide]
28 | 100 | O=S(=O)(Nc1cscn1)c1cc(F)c(Oc2ccc(Cl)cc2-c2cn[nH]c2)cc1F [Example 605, 4-[4-chloro-2-(1H-pyrazol-4-yl)phenoxy]-2,5-difluoro-N-1,3-thiazol-4-ylbenzenesulfonamide]
29 | 130 | Cn1nccc1-c1cc(Cl)ccc1Oc1cc(F)c(S(=O)(=O)Nc2cscn2)cc1F [Example 606, 4-[4-chloro-2-(1-methyl-1H-pyrazol-5-yl)phenoxy]-2,5-difluoro-N-1,3-thiazol-4-ylbenzenesulfonamide]
30 | 2800 | Cn1cc(-c2cc(OC(F)(F)F)ccc2Oc2cc(F)c(S(=O)(=O)Nc3cscn3)cc2F)cn1 [Example 607, 2,5-difluoro-4-[2-(1-methyl-1H-pyrazol-4-yl)-4-(trifluoromethoxy)phenoxy]-N-1,3-thiazol-4-ylbenzenesulfonamide]
31 | 400 | Cn1nccc1-c1cc(Cl)ccc1Oc1ccc(S(=O)(=O)Nc2ccc(F)cn2)cc1C#N [Example 608, 4-[4-chloro-2-(1-methyl-1H-pyrazol-5-yl)phenoxy]-3-cyano-N-(5-fluoropyridin-2-yl)benzenesulfonamide]
32 | 1700 | Cn1nc(C(F)(F)F)cc1-c1ccc(Oc2ccc(S(=O)(=O)Nc3ncc(F)s3)cc2F)cc1 [Example 609, 3-fluoro-N-(5-fluoro-1,3-thiazol-2-yl)-4-{4-[1-methyl-3-(trifluoromethyl)-1H-pyrazol-5-yl]phenoxy}benzenesulfonamide]
33 | >1000 | Cc1cc(C)n(-c2ccc(Oc3ccc(S(=O)(=O)Nc4nccs4)c(F)c3)cc2)n1 [Example 610, 4-[4-(3,5-Dimethyl-1H-pyrazol-1-yl)phenoxy]-2-fluoro-N-1,3-thiazol-2-ylbenzenesulfonamide]
34 | 520 | O=S(=O)(Nc1cscn1)c1ccc(Oc2ccc(Cl)cc2-c2cn[nH]c2)c(F)c1 [Example 611, 4-[4-chloro-2-(1H-pyrazol-4-yl)phenoxy]-3-fluoro-N-1,3-thiazol-4-ylbenzenesulfonamide]
35 | 540 | O=S(=O)(Nc1cscn1)c1ccc(Oc2ccc(OC(F)(F)F)cc2-c2cn[nH]c2)c(F)c1 [Example 612, 3-fluoro-4-[2-(1H-pyrazol-4-yl)-4-(trifluoromethoxy)phenoxy]-N-1,3-thiazol-4-ylbenzenesulfonamide]
36 | 110 | Cn1nccc1-c1cc(F)ccc1Oc1cc(F)c(S(=O)(=O)Nc2ncc(Cl)s2)cc1F [Example 613, N-(5-chloro-1,3-thiazol-2-yl)-2,5-difluoro-4-[4-fluoro-2-(1-methyl-1H-pyrazol-5-yl)phenoxy]benzenesulfonamide]
